Test results as given in EP1383793B1 (priority 2000, dated 2001).
Positions of bridges follow the written chain, without caps; N, C: chain ends. Residues, ends and D or L forms follow the SMILES beside them. *: point of attachment. Biotin = O=C1N[C@H]2[C@H](CS[C@H]2CCCCC(=O)*)N1

Target: human IGF-1 receptor (HIGF-1R) (Homo sapiens, UniProt P08069)
Assay: 125I-IGF-1 competition binding assay on solubilised purified receptor
Conditions: for Ratio: Kd HIGF1R / Kd HIR

Sequence of human IGF-1 receptor (HIGF-1R) (P08069 31-736 limits assumed): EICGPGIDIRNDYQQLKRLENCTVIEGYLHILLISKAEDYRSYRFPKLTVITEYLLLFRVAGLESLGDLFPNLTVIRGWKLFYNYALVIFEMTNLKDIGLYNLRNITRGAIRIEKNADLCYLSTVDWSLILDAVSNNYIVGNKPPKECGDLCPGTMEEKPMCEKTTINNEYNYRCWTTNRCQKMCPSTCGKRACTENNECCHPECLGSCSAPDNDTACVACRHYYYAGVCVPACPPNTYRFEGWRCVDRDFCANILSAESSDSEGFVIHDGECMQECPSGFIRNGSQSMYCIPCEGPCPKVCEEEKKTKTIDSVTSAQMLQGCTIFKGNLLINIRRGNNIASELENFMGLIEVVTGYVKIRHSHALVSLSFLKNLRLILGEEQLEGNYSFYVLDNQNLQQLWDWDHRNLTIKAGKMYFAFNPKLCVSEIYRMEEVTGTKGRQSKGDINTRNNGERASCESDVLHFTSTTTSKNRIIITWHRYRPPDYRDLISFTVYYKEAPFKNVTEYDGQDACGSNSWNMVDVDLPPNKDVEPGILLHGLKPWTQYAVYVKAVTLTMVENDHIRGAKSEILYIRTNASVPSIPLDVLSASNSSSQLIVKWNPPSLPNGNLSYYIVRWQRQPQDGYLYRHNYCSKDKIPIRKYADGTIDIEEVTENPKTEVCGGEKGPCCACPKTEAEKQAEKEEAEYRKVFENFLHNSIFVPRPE
Sequence of human IGF-1 receptor (HIGF-1R) (P08069 741-1367 limits assumed): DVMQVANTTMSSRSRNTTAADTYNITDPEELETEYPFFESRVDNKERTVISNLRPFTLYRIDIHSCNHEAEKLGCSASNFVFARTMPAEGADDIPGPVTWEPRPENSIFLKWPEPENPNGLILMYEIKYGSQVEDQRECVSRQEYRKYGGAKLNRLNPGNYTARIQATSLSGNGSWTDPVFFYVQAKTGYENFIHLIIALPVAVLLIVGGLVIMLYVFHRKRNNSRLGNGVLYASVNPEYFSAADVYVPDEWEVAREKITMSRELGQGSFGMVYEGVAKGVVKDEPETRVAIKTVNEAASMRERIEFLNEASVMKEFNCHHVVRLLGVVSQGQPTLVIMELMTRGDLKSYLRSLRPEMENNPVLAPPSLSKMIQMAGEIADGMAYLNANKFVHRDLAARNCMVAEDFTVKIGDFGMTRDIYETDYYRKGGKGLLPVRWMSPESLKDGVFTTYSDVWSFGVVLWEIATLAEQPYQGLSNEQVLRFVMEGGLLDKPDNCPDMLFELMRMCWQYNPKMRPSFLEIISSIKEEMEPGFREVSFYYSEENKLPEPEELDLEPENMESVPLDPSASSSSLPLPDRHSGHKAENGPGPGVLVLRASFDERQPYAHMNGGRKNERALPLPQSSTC

SMILES	Kd [µM]	Ratio
CC[C@H](C)[C@H](NC(=O)[C@@H](N)CCCCN)C(=O)NCC(=O)NCC(=O)N[C@@H](CCC(N)=O)C(=O)NCC(=O)N[C@@H](CCC(N)=O)C(=O)N[C@@H](Cc1c[nH]cn1)C(=O)N[C@@H](CCC(N)=O)C(=O)N[C@@H](CC(=O)O)C(=O)NCC(=O)N[C@@H](CC(N)=O)C(=O)N[C@@H](Cc1ccccc1)C(=O)N[C@@H](Cc1ccc(O)cc1)C(=O)N[C@@H](CC(=O)O)C(=O)N[C@@H](Cc1c[nH]c2ccccc12)C(=O)N[C@@H](Cc1ccccc1)C(=O)N[C@H](C(=O)N[C@@H](CCC(=O)O)C(=O)N[C@@H](C)C(=O)N[C@@H](CC(C)C)C(=O)N[C@@H](C)C(=O)N[C@@H](CCCCN)C(=O)N[C@@H](CCCCNC(=O)CCCC[C@@H]1SC[C@@H]2NC(=O)N[C@@H]21)C(N)=O)C(C)C [Clone D101] (H-KIGGQGQHQDGNFYDWFVEALAKK(Biotin)-NH2)	13	
CC(C)[C@H](NC(=O)[C@H](Cc1ccccc1)NC(=O)[C@H](Cc1c[nH]c2ccccc12)NC(=O)[C@H](CC(=O)O)NC(=O)[C@H](Cc1ccc(O)cc1)NC(=O)[C@H](Cc1ccccc1)NC(=O)[C@H](CC(N)=O)NC(=O)[C@H](CCC(=O)O)NC(=O)[C@H](Cc1c[nH]cn1)NC(=O)[C@@H](N)Cc1ccccc1)C(=O)N[C@@H](CCCNC(=N)N)C(=O)N[C@@H](CCC(N)=O)C(=O)N[C@H](C(=O)N[C@@H](CO)C(=O)N[C@@H](CCCCN)C(=O)N[C@@H](CCCCN)C(=O)O)C(C)C [Clone D117A]	5.1	
CC[C@H](C)[C@H](NC(=O)[C@H](CCC(=O)O)NC(=O)[C@@H](N)CCCCN)C(=O)N[C@@H](CCC(=O)O)C(=O)N[C@@H](C)C(=O)N[C@@H](CCC(=O)O)C(=O)N[C@@H](Cc1c[nH]c2ccccc12)C(=O)NCC(=O)N[C@@H](CCCNC(=N)N)C(=O)N[C@H](C(=O)N[C@@H](CCCNC(=N)N)C(=O)N[C@H]1CSSC[C@@H](C(=O)N[C@H](C(=O)NCC(=O)NCC(=O)N[C@@H](CCCCN)C(=O)N[C@@H](CCCCNC(=O)CCCC[C@@H]2SC[C@@H]3NC(=O)N[C@@H]32)C(=O)O)C(C)C)NC(=O)[C@H](CCCNC(=N)N)NC(=O)CNC(=O)[C@H](Cc2ccc(O)cc2)NC(=O)[C@H](C(C)C)NC(=O)[C@H](CC(C)C)NC1=O)C(C)C [Clone D122A] (H-KEIEAEWGRVRCLVYGRCVGGKK(Biotin)-OH; disulfide 12-18 (inferred); N-terminus assumed)		>20
CC(C)C[C@@H]1NC(=O)[C@H](CO)NC(=O)[C@H](C)NC(=O)CNC(=O)[C@H](Cc2c[nH]c3ccccc23)NC(=O)[C@H](Cc2ccccc2)NC(=O)[C@H](CC(C)C)NC(=O)[C@H](CCC(=O)O)NC(=O)[C@H](CCC(=O)O)NC(=O)[C@H](CC(C)C)NC(=O)[C@H](C(C)C)NC(=O)[C@@H](NC(=O)[C@H](CC(C)C)NC(=O)[C@H](Cc2c[nH]cn2)NC(=O)[C@@H](N)CCCCN)CSSC[C@@H](C(=O)N[C@@H](CO)C(=O)NCC(=O)N[C@@H](CCCCN)C(=O)N[C@@H](CCCCNC(=O)CCCC[C@@H]2SC[C@@H]3NC(=O)N[C@@H]32)C(=O)O)NC(=O)[C@H](Cc2ccc(O)cc2)NC(=O)CNC(=O)[C@H](Cc2ccccc2)NC1=O [Clone D124A] (H-KHLCVLEELFWGASLFGYCSGKK(Biotin)-OH; disulfide 4-19 (inferred); N-terminus assumed)		>200
